Laboratory results published in patent US20250108036A1, “COMPOSITIONS FOR REMOVING SENESCENT CELLS AND USES THEREOF” (LIFECEUTIX CO., LTD., priority 2021, published 2025).
Like-named read-outs stand apart in the source and are kept apart here.

Columns and labels:
[1] = tested on: foreskin cells in which senescence was induced by doxorubicin; experiment: CellTiter-Glo cell viability of doxorubicin-induced senescent foreskin cells (Examples 1-2, 10, 11, 13; Tables 4, 63, 65); type: cell-based, human; conditions: for viability at 1.1 µM / viability at 10 µM: Homo sapiens, 72 h, read-out: Survival (%); for viability at 10 µM: LX-112 10 μM
Procedure: (§2) After 3 days, cell viability was measured using CellTiter-Glo Luminescent Cell Viability Assay (Promega) or light microscopy.

[2] = tested on: SAOS-2; experiment: senescent SAOS-2 tumor size in mice (Example 2-3); type: in vivo, BALB/c nude mice; conditions: doxorubicin 10 mg/kg i.p.; after 10 days LX-112 100 mg/kg oral daily 21 days or repeated doxorubicin
Procedure: After 7-week-old male BALB/c nude mice (purchased from KRIBB Laboratory Animal Resource Center) were adapted to the experimental environment for one week, the mice were randomized into an experimental group and a control group. SAOS-2 (10^6 cells), a human osteosarcoma cancer cell line cultured in the same manner as Example 2-1, was mixed with PBS (purchased from Welgene) and then anesthetized using 2% isoflurane (purchased from Sigma). It was administered subcutaneously to mice. When the size of the tumor reached about […], doxorubicin was mixed at a concentration of 10 mg/kg in a 1:1 solution of distilled water and PBS (pH 7.2) and administered intraperitoneally to induce tumor aging. After 10 days, LX-112 mixed with 0.5% CMC-Na solution (purchased from Sigma) at a concentration of 100 mg/kg was orally administered daily for 21 days, and the size of the tumor was measured. The control group was repeatedly administered a solution mixed with doxorubicin, and then the size of the tumor was measured.

[3] = tested on: foreskin cells, replicative senescence (REP); experiment: CellTiter-Glo cell viability of replicative senescent foreskin cells (Example 3-2); type: cell-based, human; conditions: 3 days
[4] = tested on: p16, p21; experiment: qRT-PCR of p16 and p21 mRNA in replicative senescent foreskin cells (Example 4); type: cell-based, human; conditions: LX-112 3 μM; senescent untreated = 100%
Procedure: In the same manner as Example 3, natural aging of human foreskin cells was induced, treated with LX-112 at a concentration of 3 μM, and the amounts of the mRNA of p16 and p21, aging-related markers, were analyzed by qRT-PCR (quantitative real-time PCR). As a control group, foreskin cells before senescence induction were used. Specifically, cells were collected and treated with TRIzol Reagent (purchased from Thermo Fisher Scientific) to extract total RNA. The concentration of extracted total RNA was quantified using Nanodrop (purchased from Micro Digital). Genomic DNA was removed from the extracted total RNA using SuperScript IV VILO Master Mix with ezDNase Enzyme (purchased from Thermo Fisher Scientific), and cDNA was prepared. Using the synthesized cDNA, using the housekeeping gene GAPDH as a standard, qRT-PCR for p16 and p21 was performed using SFCgreen I qPCR Master Mix (purchased from SFC Probe), and was analyzed with CFX Connect Real-Time PCR Detection System (purchased from Bio Rad). […] Table 14 calculates the mRNA amounts of p16 and p21 after senescence was induced to 100%, respectively, and compared them with the mRNA amounts of p16 and p21 after treatment with LX-112.

[5] = tested on: aging-related inflammation and fibrosis secretory factors (SASP); experiment: ProcartaPlex immunoassay of SASP factors in culture medium of senescent foreskin cells (Example 5); type: cell-based, human; conditions: LX-112 3 μM; senescent untreated = 100%
Procedure: In the same manner as Example 3, natural aging of human foreskin cells was induced and treated with LX-112 at a concentration of 3 μM. Then the expression levels of aging-related inflammation and fibrosis secretory factors (SASP), IL1α, IL1β, IL6, IL10, MCP1, PAI1 VCAM1, MMP1, MMP2, MMP3, MMP12, and TGFβ, were measured using an immunoassay (ProcartaPlex Immunoassay, purchased from Thermo Fisher Scientific) with the obtained culture medium. […] Table 17 calculates the amount of each factor after inducing aging to 100% and compares it with the amount of each factor after treatment with LX-112.

[6] = tested on: IL6, CXCL1, CXCL10, IL1β; experiment: SASP mRNA qRT-PCR in doxorubicin-aged mice (Example 8-6); type: in vivo, C57BL6J mice; conditions: doxorubicin-aged mice, LX-112 70 mg/kg oral daily 21 days; DOX without LX = 100%
Procedure: (§1) After adapting 8-week-old male C57BL6J mice (purchased from KRIBB Laboratory Animal Resource Center) to the experimental environment for 1 week, doxorubicin, an anticancer drug, was administered intraperitoneally at a concentration of 10 mg/kg, and mice that were induced to age for more than 10 days were assigned to an experimental group and a control group. LX-112 was mixed with 0.5% CMC-Na solution (purchased from Sigma) and administered orally at a concentration of 70 mg/kg daily for 21 days. The control group was administered only the solution in the same volume. After drug administration was completed, the method described in each Example below was performed.
Using cDNA synthesized in the same manner as Example 7-6, qRT-PCR was performed and analyzed for aging-related inflammation and fibrosis secretory factors (SASP) such as IL6, CXCL1, CXCL10, and IL1β. […] Table 45 calculates the mRNA amount of each factor after aging was induced by treatment with the anticancer drug as 100% and compared it with the mRNA amount of each factor after treatment with LX-112.

[7] = fatigue/weakness tests and body weight in doxorubicin-aged mice (Example 8-7); type: in vivo, C57BL6J mice
Procedure: as §1
In the same way as Example 7-7, in order to analyze fatigue and weakness that occur as a side effect due to treatment with anticancer drugs in mice, activity evaluation (open field test), endurance evaluation (wire hanging test), and muscle strength and grip strength test (grip strength test) were performed. […] In Table 47, the amount of each evaluation after aging was induced by treatment with the anticancer drug was calculated as 100% and compared it with the amount of each evaluation after treatment with LX-112.

[8] = tested on: HMGN1; experiment: HMGN1 ELISA in culture medium of foreskin cells (Examples 10, 11; Tables 62, 63, 64); type: cell-based, human; conditions: for HMGN1 (pg/ml): senescent foreskin cells
[9] = tested on: senescent foreskin cells; experiment: survival of senescent foreskin cells treated with medium supernatant (secreted fluid) of compound-killed cells (Example 13, Tables 68, 69); type: cell-based, human; conditions: for Survival (%): supernatant-treated cells: senescent cells, after 3 days
Procedure: as §2
During this additional culture, by checking with an optical microscope, etc., the medium supernatants containing secreted fluid from normally proliferating and senescent cells in which cell death was induced were obtained. The obtained medium supernatant was replaced with the medium of normally proliferating and senescent cells, respectively, and cell survival rate was measured after 3 days.

[10] = tested on: foreskin cells in which senescence was not induced; experiment: CellTiter-Glo growth of foreskin cells in which senescence was not induced (Tables 5, 12); conditions: 3 days
Procedure: as §2

O=c1c2ccccc2[se]n1CCn1[se]c2ccccc2c1=O [LX-112, 1,2-[bis(1,2-benzisoselenazolone-3(2H)-ketone)]ethane]
viability at 1.1 µM ([1]; LX-112 1.1 μM, 3 days): 67.2% | viability at 1.1 µM ([1]; LX-112 1.1 μM, senescent foreskin cells): 67.2% | viability at 10 µM ([1]; 3 days): 1% | viability at 10 µM ([1]; senescent foreskin cells): 1% | Tumor Diameter (mm) [2]: 6.2 (±4.8) mm | Survival (%) ([3]; LX-112 1.1 μM): 59 (±6) % | Survival (%) ([3]; LX-112 10 μM): 1 (±0.9) % | mRNA (%) p16 [4]: 43 (±4) % | mRNA (%) p21 [4]: 39 (±7) % | Protein (%) IL1α [5]: 57 (±5) % | Protein (%) IL1β [5]: 46 (±6) % | Protein (%) IL6 [5]: 41 (±4) % | Protein (%) IL10 [5]: 57 (±7) % | Protein (%) MCP1 [5]: 38 (±8) % | Protein (%) MMP1 [5]: 43 (±3) % | Protein (%) MMP2 [5]: 39 (±9) % | Protein (%) MMP3 [5]: 38 (±8) % | Protein (%) MMP12 [5]: 41 (±6) % | Protein (%) PAI1 [5]: 41 (±4) % | Protein (%) TGFβ [5]: 49 (±9) % | Protein (%) VCAM1 [5]: 45 (±5) % | mRNA (%) CXCL1, Liver [6]: 68 (±21.1) % | mRNA (%) CXCL1, eWAT [6]: 94.8 (±1.2)^ % | mRNA (%) CXCL10, Liver [6]: 84 (±11.5) % | mRNA (%) CXCL10, eWAT [6]: 74 (±11) % | mRNA (%) IL1β, Liver [6]: 42 (±35.2) % | mRNA (%) IL1β, eWAT [6]: 38 (±37) % | mRNA (%) IL6, Liver [6]: 42 (±23.5) % | mRNA (%) IL6, eWAT [6]: 48.6 (±12.5) % | Open Field Test Time in Center (%) ([7]; Table 47, doxorubicin-aged mice, LX-112 70 mg/kg oral daily 21 days, DOX without LX = 100): 129 (±15) % | Mean Body Weight (g) ([7]; mice, doxorubicin 10 mg/kg i.p. without or with LX-112 70 mg/kg oral daily 21 days): 22.8 (±3.1) g | HMGN1 (pg/ml) ([8]; 10 μM, culture medium after 6 hours): 262.45 (±23.4) pg/ml | HMGN1 secreted in the culture medium from dying senescent cells ([8]; ABT-263 1 μM or LX-112 10 μM, 6 hours): greatly increased | HMGN1 (pg/ml) ([8]; LX-112 1.1 μM): 129.7(±9.3) pg/ml | HMGN1 (pg/ml) ([8]; LX-112 10 μM): 262.45 (±23.4) pg/ml | death of senescent cells by medium supernatant (secreted fluid) of cells killed by the compound ([9]; supernatant from normally proliferating or senescent cells, survival after 3 days): selectively induced the death of senescent cells | Growth (%) ([10]; Table 5, LX-112 1.1 μM, N0 (cell number before treatment) = 100%): 201 (±8) % | Growth (%) ([10]; Table 5, LX-112 10 μM, N0 = 100%): 123 (±8) % | Growth (%) ([10]; Table 12, LX-112 1.1 μM, N0 = 100%): 206 (±15) % | Growth (%) ([10]; Table 12, LX-112 10 μM, N0 = 100%): 122.7 (±16) %

COC(=O)c1ccc([C@H]2c3[nH]c4ccccc4c3C[C@H](C(=O)OC)N2C(=O)CCl)cc1 [LX-405]
cell death, senescent cells ([1]; 30 μM, 3 days): induced the death of most cells | viability at 1.1 µM ([1]; 1.1 μM test compound, doxorubicin-induced senescent foreskin cells, CellTiter-Glo, 0 μM = 100): 4.9% | activity at 30 µM ([8]; Homo sapiens, 30 μM test compound, doxorubicin-treated foreskin cells, DMSO = 100, read-out: HMGN1): 285% | Survival (%) ([9]; supernatant from compound-treated medium without cells (No Cells)): 102.8 (±4.6) % | Survival (%) ([9]; supernatant from death-induced proliferating foreskin cells (compound 30 μM)): 41.3 (±3.6) % | Survival (%) ([9]; supernatant from death-induced senescent foreskin cells (compound 30 μM)): 52.7 (±0.1) % | cell death, normally proliferating cells ([10]; 30 μM): induced the death of most cells
